The subject of series [1] is HEK293. The experiment in a line: Cytotoxicity against HEK293 cells assessed as cell damage at 50 uM incubated for 48 hrs by fluorometric method. The settings on record: human, hek293, 48 h. It counts as toxicity, cell-based.
In series [2] the target is T1, 3-hydroxyacyl-CoA dehydrogenase type-2 (Homo sapiens, UniProt Q99714).
T1 sequence (Q99714 whole entry): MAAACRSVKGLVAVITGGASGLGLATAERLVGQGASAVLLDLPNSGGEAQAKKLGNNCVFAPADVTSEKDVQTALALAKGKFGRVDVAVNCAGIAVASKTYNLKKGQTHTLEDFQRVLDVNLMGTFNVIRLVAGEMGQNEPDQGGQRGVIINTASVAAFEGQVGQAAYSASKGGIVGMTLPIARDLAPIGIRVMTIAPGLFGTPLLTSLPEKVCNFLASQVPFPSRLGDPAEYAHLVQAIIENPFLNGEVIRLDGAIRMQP
Description: Inhibition of recombinant 17beta-HSD10 (unknown origin) using E2 as substrate and NAD+ as cofactor preincubated for 5 mins followed by substrate addition and measured after 20 mins by fluorometric assay.

The target of series [3] is T1, 3-hydroxyacyl-CoA dehydrogenase type-2. Description: Inhibition of recombinant 17beta-HSD10 (unknown origin) using ALLOP as substrate and NAD+ as cofactor preincubated for 5 mins followed by substrate addition and measured after 20 mins by fluorometric assay.
The target is the same in series [4]. Description: Mixed type inhibition of recombinant 17beta-HSD10 (unknown origin) using E2 as substrate and NAD+ as cofactor preincubated for 5 mins followed by substrate addition and measured after 20 mins by fluorometric assay.

For `CC(=O)Nc1ccc2nc(NCc3ccc(O)c(C(F)(F)F)c3)sc2c1`, in series [1], the Activity result is recorded as “Non-Toxic”. Regarding `O=C(Nc1ccc(O)c(Cl)c1)Nc1nc2ccc(C(=O)O)cc2s1`, the IC50 in series [2] worked out at 1810 nM.

Turning to `CS(=O)(=O)Nc1ccc2nc(NC(=O)Nc3ccc(O)c(Cl)c3)sc2c1`, the Activity entry in series [1] is given as “Non-Toxic”. The same measure, in the same setting: the result for `O=C(O)c1ccc2nc(NCc3ccc(O)c(Cl)c3)sc2c1` reads “Non-Toxic”. As for `NS(=O)(=O)c1ccc2nc(NC(=O)Nc3ccc(O)c(Cl)c3)sc2c1`, the Activity entry in series [1] was “Non-Toxic”. In the case of `O=C(Nc1ccc(O)c(C(F)(F)F)c1)Nc1nc2ccc(C(=O)O)cc2s1`, the IC50 in series [3] is 250 nM; in series [4] it was 340 nM. Besides, in series [1], the Activity result is on record as “Non-Toxic”.

For `NC(=O)Nc1ccc2nc(NC(=O)Nc3ccc(O)c(Cl)c3)sc2c1`, the values for the IC50 in series [3] and in series [4] were 330 nM and 270 nM, respectively. Also, the Activity result in series [1] is “Non-Toxic”. `O=C(O)c1ccc2nc(NC(=O)c3ccc(O)c(Cl)c3)sc2c1`: in series [1], the Activity entry is reported as “Non-Toxic”.

Regarding `O=C(Nc1ccc(O)c(Cl)c1)Nc1nc2cc(C(=O)O)ccc2s1`, the Activity result in series [1] is recorded as “Non-Toxic”. Turning to `O=C(O)c1ccc2nc(NCCc3ccc(O)c(Cl)c3)sc2c1`, the Activity result in series [1] is reported as “Non-Toxic”. On to `CC(=O)Nc1ccc2nc(NC(=O)Nc3ccc(O)c(Cl)c3)sc2c1`, for which the IC50 in series [2] came out at 1150 nM. Turning to `CC(=O)Nc1ccc2nc(NCCc3ccc(O)c(Cl)c3)sc2c1`, in series [1], the Activity entry is on record as “Non-Toxic”.

As to `CC(=O)Nc1ccc2nc(NCc3ccc(O)c(Cl)c3)sc2c1`, the Activity result in series [1] is “Non-Toxic”.

`O=C(Nc1ccc(O)c(Cl)c1)Nc1nc2ccc(-c3nnn[nH]3)cc2s1`: the IC50 was 95 nM in series [3] and 410 nM in series [4]. In series [1], the Activity result was “Non-Toxic”. Consider `CC(=O)Nc1ccc2nc(N(CCc3ccc(O)c(Cl)c3)C(C)=O)sc2c1`, for which the Activity result in series [1] is “Non-Toxic”. Same read-out and setting: under `CC(=O)Nc1ccc2nc(NC(=O)Nc3ccc(O)c(C(F)(F)F)c3)sc2c1` stands “Non-Toxic”.

The record behind these values is ChEMBL document CHEMBL5390298, “Nanomolar Benzothiazole-Based Inhibitors of 17β-HSD10 with Cellular Bioactivity” (ACS Med Chem Lett, 2023).
